# Key:
# [1] = Inhibition of human ClpP expressed in Escherichia coli SG1146 cells/His6-tagged TEV-fused human ClpX expressed in Escherichia coli B21 Gold DE3 cells complex formation using FITC-casein as substrate incubated for 60 mins and measured at 20 secs time interval for 90 mins by fluorescence assay
# [2] = target: ATP-dependent Clp protease proteolytic subunit, mitochondrial (Homo sapiens, UniProt Q16740); test: Inhibition of human ClpP expressed in Escherichia coli SG1146 cells using N-acetyl-Trp-Leu-Ala-AMC as substrate incubated for 1 hr and measured at 20 secs time interval for 90 mins by fluorescence assay
# Chain of ATP-dependent Clp protease proteolytic subunit, mitochondrial (Q16740 whole entry): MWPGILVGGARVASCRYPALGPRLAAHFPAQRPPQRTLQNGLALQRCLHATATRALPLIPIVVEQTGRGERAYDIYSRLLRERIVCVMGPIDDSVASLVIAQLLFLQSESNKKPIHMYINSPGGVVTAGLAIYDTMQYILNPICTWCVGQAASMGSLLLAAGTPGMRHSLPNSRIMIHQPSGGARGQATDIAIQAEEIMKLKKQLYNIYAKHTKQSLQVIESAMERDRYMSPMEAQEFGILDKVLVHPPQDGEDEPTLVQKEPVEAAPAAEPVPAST
IC50 [1],IC50 [2],IC50 ([2]; read-out: IC50),Structure (SMILES)
0.8 µM,–,–,COc1ccc(C(=O)N[C@@H](CC(C)C)C(=O)N[C@@H](CC(C)C)B(O)O)c(Cl)c1
–,Not Active,–,CC(C)CC(NC(=O)C(CC(C)C)NC(=O)C1(c2ccccc2)CC1)B(O)O (stereo unspecified)

# More lines, now with the values behind:
Structure (SMILES),IC50 [1],IC50 [2],IC50 ([2]; read-out: IC50)
CC(C)C[C@H](NC(=O)[C@H](CC(C)C)NC(=O)c1ccc(F)c([N+](=O)[O-])c1)B(O)O,1 µM,–,–
COc1ccc(C(=O)NC(CC(C)C)C(=O)NC(Cc2ccccc2)B(O)O)c(Cl)c1 (stereo unspecified),–,Not Active,118 µM
CC(C)C[C@H](NC(=O)[C@H](CC(C)C)NC(=O)c1ccccc1-c1ccccc1)B(O)O,0.9 µM,–,–
